From patent US12048764B2, “Levodopa infusion solution” (DIZLIN PHARMACEUTICALS AB, priority 2017, dated 2024)

Legend:
[1] = Preliminary patient trial: s.c./i.v. infusion versus intestinal Duodopa, plasma levodopa and carbidopa; assay type: in vivo, patients with Parkinson's disease
Description: The trial results are from 3 randomly selected patients of a larger study, and for each patient subcutaneous, intravenous injection and intestinal administration was compared.
The study was a prospective, randomized, 3-period cross-over, open-label multicentre trial comparing intravenous and subcutaneous infusion of the preferred aqueous pharmaceutical solution with intestinal Duodopa (LCIG) performed according to the principles of Good Clinical Practice (GCP). The trial included patients with Parkinson's disease who are on Duodopa treatment because of severe on-off manifestation when on oral levodopa. During one treatment visit, patients receive Duodopa at optimal dosage for 16 hours, during another treatment visit, the patients received an i.v. infusion of the preferred aqueous pharmaceutical solution at a concentration estimated to yield corresponding serum levels of levodopa for the same duration, and at a third treatment visit the patients received the corresponding amount of levodopa but in the form of s.c. infusion. Blood samples were drawn according to a set schedule during the treatment visits for up to 24 h. […]
Levodopa and carbidopa in patient's plasma was analysed by ultra-performance liquid chromatography-tandem mass spectrometry (UPLC-MS/MS) according to the principles of Good Laboratory Practice (GLP).

[2] = cited from earlier work

levodopa concentration in the blood required for therapeutic effect ([1]; patient no 101, severe PD): 5,000-6,000 ng/mL
levodopa concentration in the blood required for therapeutic effect ([1]; patient no 103, moderate or mild PD): 1,600-1,700 ng/mL
Structure (SMILES): N[C@@H](Cc1ccc(O)c(O)c1)C(=O)O [levodopa]
concentration above which levodopa precipitates ([2]; pH values acceptable for continuous parenteral administration): 500 to 1000 µg/mL
levodopa concentration obtainable ([2]; pH<3 or pH>9): exceeding 5 mg/ml
